Data: patent publication US12102634B2, “Use of berbamine or its analogue for preventing or treating RNA virus infection” (City University of Hong Kong, priority 2019, dated 2024)
Entries after “also recorded” stand apart in the source; their conditions may differ. Where two headings read alike, the source gives them in different places.

Assays:
JEV [1] = experiment: JEV lethal challenge in mice; assay type: in vivo, BALB/c mice; details: 15 days
Description: JEV-infected with berbamine-treated group. For infection, mice were injected intraperitoneally with approximately 10^6.5 TCID50 of JEV. For the berbamine treatment group, mice were injected intraperitoneally with a dose of 15 mg/kg berbamine or PBS daily. For the control-vehicle group, mice were injected intraperitoneally with a dose of 50 mg/kg PBS daily. Survival rate and change of body weight if the mice in each group were monitored for 15 days after JEV injection.

EV-A71 = experiment: High-content image assay, EV-A71 infection of RD cells; assay type: cell-based, enterovirus EV-A71 (EV-71); details: 10 MOI EV-71, read-out: EC50 against EV-A71 infection in RD cells
Text: After viral infection, the cells are fixed.

lentivirus = experiment: Lentivirus (histone B-RFP) infection of A549 cells; assay type: cell-based; details: pretreated A549 cells, lentivirus encoding histone B-RFP
[2] = system: MLV-SARS-CoV-2 S pseudotyped particles; assay type: cell-based
[3] = system: MERS-SARS-CoV S pseudotyped particles; assay type: cell-based
MERS-CoV = assay type: cell-based
SARS-CoV-2 [4] = experiment: SARS-CoV-2 infection of Vero-E6 cells, virus titration assay; assay type: cell-based; details: Severe acute respiratory syndrome coronavirus 2, Vero C1008, read-out: EC50, SARS-CoV-2 viral yield by virus titration assay
Description: FIG. 12F is a plot showing the inhibition rate determined by using virus titer measurement, in which Vero-E6 cells were treated with berbamine at the indicated concentrations for 3 h, followed by infection with SARS-CoV-2.

lysosomal Ca^2+ channels = experiment: GPN-induced Ca2+ release from lysosomes in Fura-2-loaded HeLa cells; assay type: cell-based; details: 10 μM, 200 μM GPN
Description: (§1) HeLa cells were grown in 24-well plates to ˜80% confluency. The cells were then loaded with HBSS (Gibco, 14025092) containing 4 μM Fura-2 AM (Invitrogen, F1221) and 0.4% Pluronic™ F-127 (Invitrogen, P3000MP) at room temperature for 30 min. The cells were then washed with Ca^2+-free HBSS containing 2 mM EGTA and incubated in Ca^2+-free HBSS in the presence or absence of berbamine (10 μM) at room temperature for another 30 min. Fluorescence images were acquired at 3 s intervals by alternate excitation at 340 nm and 380 nm with emission at 510 nm using a Nikon Eclipse Ti-S Calcium imaging system. Approximately 1 min after live cell imaging, 200 μM GPN (Abcam, ab145914) or 25 μM ML-SA1 (Tocris Bioscience, 4746) was added to the cells to trigger Ca2+ release from the lysosomes.

TRPMLs = experiment: ML-SA1-induced cytosolic Ca2+ increase in Fura-2-loaded HeLa cells; assay type: cell-based; details: 10 μM, 25 μM ML-SA1
Description: as §1

Huh7 cells = experiment: Secretion of extracellular vesicles by Huh7 cells, nanoparticle tracking analyzer; assay type: cell-based
Description: The EVs were collected from the culture medium of control or berbamine-treated Huh7 cells, and their concentration and distribution of sizes were determined with a nanoparticle tracking analyzer.
The inventors then examined whether these EVs contain elevated levels of ACE2 or DPP4 in the berbamine-treated group when compared with the control group. Thus, EVs in the culture medium from the control and berbamine-treated Huh7 cells were collected by ultracentrifugation, and the protein levels of ACE2 and DPP4 were analyzed by immunoblot analysis. […] The inventors also speculated that the increase in the secretion of ACE2 and DPP4-containing exosomes out of cells might lead to the reduced levels of these receptors in berbamine-treated cells. […] Similar results regarding the effects of berbamine on the expression of ACE2 in cells or EVs have also observed in A549 cells (FIGS. 15D and 15E). […] This leads to an increase in the level of secretion of ACE2 or DPP4 via EVs and a concomitant decrease in their levels at the plasma membrane.
Purification of extracellular vesicles from the culture medium-A549 cells or Huh7 cells were grown in 15-cm dishes to ˜80% confluency. The cells were then rinsed with PBS and incubated in EV-depleted complete medium containing DMSO or berbamine (25 μM) for 48 h. […]

ACE2 = assay type: cell-based
DPP4 = assay type: cell-based
SARS-CoV-2 [5] = experiment: in vitro; details: African green monkey
[6] = Cytotoxicity in Vero cells; details: African green monkey
[7] = Cytotoxicity in Hela cells; details: human
[8] = Cytotoxicity in A549 cells; details: human
[9] = Cytotoxicity in Huh7 cells; details: human
[10] = Cytotoxicity in BHK-21 cells; details: Syrian hamster
SARS-CoV-2 [11] = experiment: microbe, parasite or virus in culture; details: Severe acute respiratory syndrome coronavirus 2, Vero C1008, read-out: EC50, SARS-CoV-2 viral yield by qRT-PCR assay
JEV [12] = experiment: JEV-induced cell death in A549 or BHK-21 cells; details: pretreated A549 cells or BHK-21 cells
JEV [13] = experiment: Virus titration assay, JEV production in A549 cells; details: A549 cells pretreated
DENV-2 = experiment: DsRNA immunostaining, DENV-2 infection of A549 cells; details: pretreated 1 h, about 10 MOI DENV-2, dose dependent
JEV [14] = experiment: High-content image assay, JEV infection of JEG-3 cells; details: JEG-3 cells pretreated 1 h, about 50 MOI, 18 h
ZIKV [15] = experiment: High-content image assay, ZIKV infection of JEG-3 cells; details: JEG-3 cells pretreated 1 h, about 50 MOI, 18 h
JEV [16] = experiment: Western blot of JEV-NS1 expression in JEV-infected A549 cells; details: A549 cells pretreated 1 h
ZIKV [17] = experiment: Western blot of ZIKV-E expression in ZIKV-infected A549 cells; details: A549 cells pretreated 1 h
ZIKV [18] = experiment: ZIKV entry, anti-ZIKV envelope protein immunostaining in A549 cells; details: ZIKV on ice 1 h, then 37° C. 40 min
JEV [19] = experiment: High-content image assay (DsRNA immunostaining), JEV infection of A549 cells; details: human
ZIKV [20] = experiment: High-content image assay (DsRNA immunostaining), ZIKV infection of A549 cells; details: human
[21] = 15 mg/kg intraperitoneally daily, vs control group
[22] = EVs from treated Huh7 cell culture medium
[23] = Vero-E6 cells, cycloheximide, 50 μM, 6 h

COc1cc2c3cc1Oc1c(OC)c(OC)cc4c1[C@@H](Cc1ccc(O)c(c1)Oc1ccc(cc1)C[C@@H]3N(C)CC2)N(C)CC4 [berbamine]
body weight change of mice after JEV challenge (JEV [1]; [21]): less weight changes | survival rate of mice after JEV challenge (JEV [1]; [21]): increases the survival rate | survival rate of mock (uninfected) mice given compound vs mock group (JEV [1]; mock group with 15 mg/kg): same survival rate | EC50 (EV-A71): ~17.3 µM | EC50 (EV-A71; Enterovirus A, EV71 / EVA71, RD): ~17 µM | lentivirus infection of A549 cells (lentivirus): abolished | entry of MLV-SARS-CoV-2 S pseudovirus particles [2]: effectively inhibited; also recorded: inhibited the entry | entry of MERS-SARS-CoV S pseudovirus particles [3]: effectively inhibited; also recorded: inhibited the entry | extracellular level of MERS-CoV RNA (MERS-CoV): significantly decreased | intracellular level of MERS-CoV RNA (MERS-CoV): significantly decreased | EC50 (SARS-CoV-2 [4]): ~4.7 µM | GPN-induced cytosolic Ca2+ increase (lysosomal Ca^2+ channels): significantly inhibited | ML-SA1-induced cytosolic Ca2+ increase (TRPMLs): significantly inhibited | secretion of EVs (Huh7 cells): significantly promoted | level of ACE2 in EVs (ACE2; [22]): markedly increased | level of ACE2 in cells (ACE2; [23]): markedly decreased | level of DPP4 in EVs (DPP4; [22]): markedly increased | level of DPP4 in cells (DPP4; [23]): markedly decreased | selectivity ratio (SARS-CoV-2 [5]): 48.9 | CC50 [6]: 115 ± 5.3 µM | CC50 [7]: 115 ± 3.6 µM | CC50 [8]: 127 ± 3.9 µM | CC50 [9]: 90.4 ± 2.98 µM | CC50 [10]: 127 ± 2.43 µM | EC50 (SARS-CoV-2 [11]): ~2.3 µM | JEV-induced cell death (JEV [12]): markedly reduced | production of JEV (virus titer) (JEV [13]): significantly inhibited; also recorded: markedly inhibited | DENV-2 infection in A549 cells (DENV-2): significantly inhibit | JEV infection in JEG-3 cells (JEV [14]): significantly inhibited | ZIKV infection in JEG-3 cells (ZIKV [15]): significantly inhibited | protein expression of JEV-NS1 (JEV [16]): markedly inhibited | protein expression of ZIKV-E (ZIKV [17]): markedly inhibited | entry of ZIKV into host cells (ZIKV [18]): inhibitory effect | selectivity ratio (JEV [19]): 78.2 | selectivity ratio (ZIKV [20]): 58.4
